The results in this text go back to paper PMC11628400 (Nature Cell Biology, 2024).

Test [1] addresses T1, NAT10 (Homo sapiens, UniProt Q9H0A0).
T1 sequence (Q9H0A0 1-1025): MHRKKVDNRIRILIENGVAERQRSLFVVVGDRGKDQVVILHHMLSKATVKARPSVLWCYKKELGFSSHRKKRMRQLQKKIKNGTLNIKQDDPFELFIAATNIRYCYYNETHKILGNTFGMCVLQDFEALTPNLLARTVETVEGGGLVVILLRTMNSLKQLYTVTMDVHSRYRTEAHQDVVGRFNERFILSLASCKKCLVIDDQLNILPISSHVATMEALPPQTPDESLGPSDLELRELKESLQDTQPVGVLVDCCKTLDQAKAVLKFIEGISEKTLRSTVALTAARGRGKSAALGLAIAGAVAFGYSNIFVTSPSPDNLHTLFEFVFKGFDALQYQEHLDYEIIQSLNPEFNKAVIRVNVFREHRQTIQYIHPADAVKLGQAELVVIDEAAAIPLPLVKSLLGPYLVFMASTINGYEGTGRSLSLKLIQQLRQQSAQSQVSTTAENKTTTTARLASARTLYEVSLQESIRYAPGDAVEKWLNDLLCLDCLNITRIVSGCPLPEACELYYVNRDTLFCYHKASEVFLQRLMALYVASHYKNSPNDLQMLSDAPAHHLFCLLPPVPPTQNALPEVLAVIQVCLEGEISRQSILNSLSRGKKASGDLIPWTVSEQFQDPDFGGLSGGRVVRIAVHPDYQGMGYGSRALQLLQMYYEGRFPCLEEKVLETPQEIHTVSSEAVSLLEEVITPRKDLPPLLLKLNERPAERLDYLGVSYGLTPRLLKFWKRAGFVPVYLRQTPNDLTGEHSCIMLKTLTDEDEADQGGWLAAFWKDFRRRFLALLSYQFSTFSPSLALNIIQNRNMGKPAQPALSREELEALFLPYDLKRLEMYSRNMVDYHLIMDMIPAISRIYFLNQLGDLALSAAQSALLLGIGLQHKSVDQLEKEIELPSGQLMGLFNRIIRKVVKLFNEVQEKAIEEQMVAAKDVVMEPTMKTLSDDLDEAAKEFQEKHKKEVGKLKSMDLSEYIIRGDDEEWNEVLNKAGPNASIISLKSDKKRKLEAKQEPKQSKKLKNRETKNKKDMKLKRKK
Briefly: DARTS. Format: cell-based.

In test [2] the target is T1, NAT10. Briefly: DARTS in MOLM13 lysate. The test is classed as cell-based.

For the compound `Nc1nc(F)nc2c1ncn2[C@@H]1O[C@H](COP(=O)(O)OP(=O)(O)OP(=O)(O)O)[C@@H](O)[C@@H]1O` [F-ara-ATP, fludarabine triphosphate], at NAT10 [1], the “DARTS (protection from pronase digestion) in MOLM13 lysate” value is “The binding of fludarabine and F-ara-ATP with NAT10 were confirmed by drug affinity responsive target stability assay (DARTS)”.
For the compound `Nc1nc(F)nc2c1ncn2[C@@H]1O[C@H](COP(=O)(O)O)[C@@H](O)[C@@H]1O` [P-F-ara-A, fludarabine (P-F-ara-A)], at NAT10 [1], the “DARTS (protection from pronase digestion) in MOLM13 lysate” value is “DARTS assays evaluating the efficacy of Remodelin, P-F-ara-A and F-ara-ATP on protecting NAT10 protein against pronase digestion”.
For `N#Cc1ccc(-c2csc(NN=C3CCCC3)n2)cc1` [Remodelin], the “DARTS in MOLM13 lysate; CETSA in MonoMac6 cells” value on NAT10 [2] is “Thermal shift curves of NAT10 from CETSA assays in MonoMac6 pretreated with fludarabine (F-ara-A), Remodelin or dimethylsulfoxide (DMSO)”.
